For test [1], the target named is T1, Akt1 (Homo sapiens, UniProt P31749).
T1 construct: unspecified tag, removed (detagged) (cleaved yes); purchased SignalChem and Proteros (Akt1); Merck Millipore (PDK1) 14-452 (PDK1); none given for Akt1
The experiment in a line: Akt activation assay (PDK1-mediated activation, LANCE Ultra crosstide TR-FRET), Akt1. The class given is biochemical. The settings on record: read-out: Biological Assay 1 IC50 (nM) Akt1. An outline of the steps:
(§1)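 Unactivated Akt (5 nM Akt1, 15 or 5 nM Akt2, 3 or 5 nM Akt3, by supplier) preincubated with compound, then activated by 5 nM PDK1 on DOPS/DOPC/PtdIns(3,4,5)P3 vesicles with 100 μM ATP and 100 nM Ulight-crosstide, pH 7.5, 30 min. Eu-anti-phospho-crosstide TR-FRET (665/615 nm); IC50 by 4-parameter fit.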

Test [2] deals with T2, p-Akt3 in WM115 cells (Homo sapiens, UniProt Q9Y243).
T2 construct: SureFire assays to detect cellular p-Akt1, p-Akt2 and p-Akt3 levels in WM115 cells (Akt2/3) and LNCaP cells (Akt1); endogenous in cells; host or cells: WM115 (ECACC 91061232), insulin-stimulated
In words: Phospho-Akt cellular SureFire assay, p-Akt3 in WM115 cells. In kind it is cell-based. The settings on record: insulin stimulated, read-out: Biological Assay 2 IC50 (nM) Akt3 WM115. An outline of the steps:
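WM115 cells were serum-reduced to 0.1% FBS, stimulated with 100 nM insulin for 10 min, then exposed to compound (0.3% DMSO) for 15 min at 37 °C. Lysates were assayed for Thr308-phosphorylated Akt3 by AlphaScreen SureFire using an isoform-specific total Akt3 capture antibody. IC50 was derived from a 4-parameter fit.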

Test [3] concerns the target T3, p-Akt2 in WM115 cells (Homo sapiens, UniProt P31751).
T3 construct: SureFire assays to detect cellular p-Akt1, p-Akt2 and p-Akt3 levels in WM115 cells (Akt2/3) and LNCaP cells (Akt1); endogenous in cells; host or cells: WM115 (ECACC 91061232), insulin-stimulated
The experiment in a line: Phospho-Akt cellular SureFire assay, p-Akt2 in WM115 cells. The class given is cell-based. The settings on record: insulin stimulated, read-out: Biological Assay 2 IC50 (nM) Akt2 WM115. An outline of the steps:
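WM115 cells in 0.1% FBS medium stimulated 10 min with 100 nM insulin, then exposed to compound for 15 min at 37° C (0.3% DMSO final). Lysates assayed by AlphaScreen with anti-(pThr308)Akt and isoform-specific total Akt2 antibodies; IC50 from 4-parameter fit.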

The target in test [4] is T4, Akt3 (Homo sapiens, UniProt Q9Y243).
T4 construct: unspecified tag, removed (detagged) (cleaved yes); purchased SignalChem and Proteros (Akt3); Merck Millipore (PDK1) 14-452 (PDK1); none given for Akt3
The experiment in a line: Akt activation assay (PDK1-mediated activation, LANCE Ultra crosstide TR-FRET), Akt3. In kind it is biochemical. The settings on record: read-out: Biological Assay 1 IC50 (nM) Akt3. An outline of the steps:
as §1

In test [5] the target is T5, Akt2 (Homo sapiens, UniProt P31751).
T5 construct: unspecified tag, removed (detagged) (cleaved yes); purchased SignalChem and Proteros (Akt2); Merck Millipore (PDK1) 14-452 (PDK1); none given for Akt2
The experiment in a line: Akt activation assay (PDK1-mediated activation, LANCE Ultra crosstide TR-FRET), Akt2. The settings on record: read-out: Biological Assay 1 IC50 (nM) Akt2. The class given is biochemical. An outline of the steps:
as §1

The target of test [6] is T6, p-Akt1 in LNCaP cells (Homo sapiens, UniProt P31749).
T6 construct: SureFire assays to detect cellular p-Akt1, p-Akt2 and p-Akt3 levels in WM115 cells (Akt2/3) and LNCaP cells (Akt1); endogenous in cells; host or cells: LNCaP (ECACC 89110211)
The experiment in a line: Phospho-Akt cellular SureFire assay, p-Akt1 in LNCaP cells. The class given is cell-based. The settings on record: read-out: Biological Assay 2 IC50 (nM) Akt1 LNCaP. An outline of the steps:
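LNCaP cells, 5×10^4/well, seeded overnight, switched to 0.1% FBS medium without insulin stimulation, then compound for 15 min at 37 °C (0.3% DMSO). Lysate p-Akt1 (pThr308) by AlphaScreen SureFire, two 2 h incubations at room temperature; IC50 by 4-parameter fit.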

The structures appear in SMILES notation.

T6 sequence (P31749 whole entry): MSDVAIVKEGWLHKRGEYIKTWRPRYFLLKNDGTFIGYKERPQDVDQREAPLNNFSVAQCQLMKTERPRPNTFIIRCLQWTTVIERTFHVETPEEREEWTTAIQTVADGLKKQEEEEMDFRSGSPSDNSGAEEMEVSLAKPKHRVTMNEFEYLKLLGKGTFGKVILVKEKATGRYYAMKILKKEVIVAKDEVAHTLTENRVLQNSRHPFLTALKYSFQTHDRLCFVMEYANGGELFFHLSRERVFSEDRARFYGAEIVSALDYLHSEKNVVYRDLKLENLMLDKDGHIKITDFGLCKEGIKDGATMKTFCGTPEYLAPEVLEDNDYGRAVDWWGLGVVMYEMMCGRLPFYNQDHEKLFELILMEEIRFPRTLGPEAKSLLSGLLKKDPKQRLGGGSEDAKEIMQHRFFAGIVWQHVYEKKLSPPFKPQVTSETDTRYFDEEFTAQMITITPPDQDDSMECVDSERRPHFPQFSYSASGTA
T1 sequence (P31749 whole entry): as above
T5 sequence (P31751 whole entry): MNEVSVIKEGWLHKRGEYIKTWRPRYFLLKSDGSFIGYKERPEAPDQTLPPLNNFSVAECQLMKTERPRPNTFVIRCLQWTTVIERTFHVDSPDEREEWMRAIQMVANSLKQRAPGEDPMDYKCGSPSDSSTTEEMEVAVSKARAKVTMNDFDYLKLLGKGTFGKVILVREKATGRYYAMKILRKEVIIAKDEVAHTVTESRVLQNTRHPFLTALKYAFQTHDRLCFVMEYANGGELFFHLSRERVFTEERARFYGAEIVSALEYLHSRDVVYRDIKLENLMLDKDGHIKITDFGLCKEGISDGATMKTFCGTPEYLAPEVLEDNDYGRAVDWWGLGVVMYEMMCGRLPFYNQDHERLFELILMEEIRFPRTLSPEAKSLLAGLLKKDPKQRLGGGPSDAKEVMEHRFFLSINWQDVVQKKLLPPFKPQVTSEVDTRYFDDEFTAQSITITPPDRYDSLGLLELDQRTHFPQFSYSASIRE
T3 sequence (P31751 whole entry): as above
T2 sequence (Q9Y243 whole entry): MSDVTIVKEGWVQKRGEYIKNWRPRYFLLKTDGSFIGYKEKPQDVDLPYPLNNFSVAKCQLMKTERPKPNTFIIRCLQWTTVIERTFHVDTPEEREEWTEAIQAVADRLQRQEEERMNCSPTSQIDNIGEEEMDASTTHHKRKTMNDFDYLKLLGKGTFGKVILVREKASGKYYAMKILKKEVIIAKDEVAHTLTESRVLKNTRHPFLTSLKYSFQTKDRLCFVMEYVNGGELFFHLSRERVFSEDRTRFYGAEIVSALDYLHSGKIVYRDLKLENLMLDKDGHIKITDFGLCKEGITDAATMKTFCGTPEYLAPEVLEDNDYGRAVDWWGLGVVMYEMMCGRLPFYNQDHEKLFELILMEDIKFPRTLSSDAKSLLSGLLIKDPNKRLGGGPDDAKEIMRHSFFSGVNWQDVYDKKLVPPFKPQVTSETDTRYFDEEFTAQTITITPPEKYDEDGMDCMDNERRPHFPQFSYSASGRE
T4 sequence (Q9Y243 whole entry): as above

For `CC(=O)N(C)[C@H]1CC[C@H](CC(=O)Nc2cc(-c3ccccn3)c(-c3ccc(C4(N)CCC4)cc3)cn2)CC1` [Example 76, N-(5′-(4-(1-aminocyclobutyl)phenyl)-[2,4′-bipyridin]-2′-yl)-2-(trans-4-(N-methylacetamido)cyclohexyl)acetamide], the IC50 is over 30000 nM in test [1]; 140 nM in test [2]; over 30000 nM in test [3]; 1000 nM in test [4]; over 30000 nM in test [5]; over 30000 nM in test [6].

In the case of `COC(=O)N(C)[C@H]1CC[C@H](CC(=O)Nc2cnc(-c3ccc([C@]4(N)C[C@H](F)C4)cc3)c(-c3ccccc3)c2)CC1` [Example 77, Methyl (trans-4-(2-((6-(4-(trans-1-amino-3-fluorocyclobutyl)phenyl)-5-phenylpyridin-3-yl)amino)-2-oxoethyl)cyclohexyl)(methyl)carbamate], the IC50 is 7900 nM in test [1]; 100 nM in test [2]; 5100 nM in test [3]; 62 nM in test [4]; 1100 nM in test [5]; over 30000 nM in test [6].

As to `N[C@]1(c2ccc(-c3ncc(NC(=O)C[C@H]4CC[C@H](N5CCOC5=O)CC4)cc3-c3ccccc3)cc2)C[C@@H](F)C1` [Example 78, N-(6-(4-(trans-1-amino-3-fluorocyclobutyl)phenyl)-5-phenylpyridin-3-yl)-2-(trans-4-(2-oxooxazolidin-3-yl)cyclohexyl)acetamide], the IC50 in test [1] came out at 5900 nM; in test [2], 30 nM; in test [3] it was 810 nM; in test [4], 14 nM; in test [5] it was 230 nM; in test [6], 2000 nM.

Consider `N[C@]1(c2ccc(-c3nnc(NC(=O)C[C@H]4CC[C@H](N5CCOC5=O)CC4)cc3-c3ccsc3)cc2)C[C@@H](F)C1` [Example 79, N-(6-(4-(trans-1-amino-3-fluorocyclobutyl)phenyl)-5-(thiophen-3-yl)pyridazin-3-yl)-2-(trans-4-(2-oxooxazolidin-3-yl)cyclohexyl)acetamide], for which the IC50 in test [1] is over 30000 nM; in test [2], 59 nM; in test [3], over 30000 nM; in test [4], 26 nM; in test [5] it was 590 nM; in test [6] it was over 30000 nM.

As for `CC(C)(N)c1ccc(-c2nnc(NC(=O)C[C@H]3CC[C@H](N4CCOC4=O)CC3)cc2-c2ccsc2)cc1` [Example 80, N-(6-(4-(2-aminopropan-2-yl)phenyl)-5-(thiophen-3-yl)pyridazin-3-yl)-2-(trans-4-(2-oxooxazolidin-3-yl)cyclohexyl)acetamide], the IC50 in test [1] is over 30000 nM; in test [2], 150 nM; in test [3] it was 18000 nM; in test [4] it was 130 nM; in test [5], 8900 nM; in test [6] it was over 30000 nM.

With `CCC(=O)N(C)[C@H]1CC[C@H](CC(=O)Nc2cc(-c3ccccc3)c(-c3ccc([C@]4(N)C[C@](C)(O)C4)cc3)cn2)CC1` [Example 82, N-(trans-4-(2-((5-(4-(trans-1-amino-3-hydroxy-3-methylcyclobutyl)phenyl)-4-phenylpyridin-2-yl)amino)-2-oxoethyl)cyclohexyl)-N-methylpropionamide], the IC50 in test [1] was over 19000 nM; in test [2], 10 nM; in test [3], 380 nM; in test [4], 6 nM; in test [5] it was 130 nM; in test [6], 2400 nM.

In the case of `CCC(=O)N(C)[C@H]1CC[C@H](CC(=O)Nc2cc(-c3ccccc3)c(-c3ccc([C@]4(N)C[C@](C)(O)C4)cc3)nn2)CC1` [Example 83, N-(trans-4-(2-((6-(4-(trans-1-amino-3-hydroxy-3-methylcyclobutyl)phenyl)-5-phenylpyridazin-3-yl)amino)-2-oxoethyl)cyclohexyl)-N-methylpropionamide], the IC50 in test [1] came to 2100 nM; in test [2] it was 7 nM; in test [3] it was 250 nM; in test [4], 4 nM; in test [5], 86 nM; in test [6], 820 nM.

In the case of `COC(=O)N(C)[C@H]1CC[C@H](CC(=O)Nc2cc(-c3ccsc3)c(-c3ccc([C@]4(N)C[C@](C)(O)C4)cc3)nn2)CC1` [Example 84, Methyl (trans-4-(2-((6-(4-(trans-1-amino-3-hydroxy-3-methylcyclobutyl)phenyl)-5-(thiophen-3-yl)pyridazin-3-yl)amino)-2-oxoethyl)cyclohexyl)(methyl)carbamate], the IC50 in test [1] was 2600 nM; in test [2], 8 nM; in test [3], 830 nM; in test [4], 5 nM; in test [5] it was 140 nM; in test [6], over 19000 nM.

As to `COC(=O)N(C)[C@H]1CC[C@H](CC(=O)Nc2cc(-c3ccccn3)c(-c3ccc(C4(N)CCC4)cc3)cn2)CC1` [Example 86, Methyl (trans-4-(2-((5′-(4-(1-aminocyclobutyl)phenyl)-[2,4′-bipyridin]-2′-yl)amino)-2-oxoethyl)cyclohexyl)(methyl)carbamate], the IC50 in test [1] is over 30000 nM; in test [2], 430 nM; in test [3], 12000 nM; in test [4] it was 480 nM; in test [5], 14000 nM; in test [6], over 30000 nM.

As to `CN(C(=O)C1CC1)[C@H]1CC[C@H](CC(=O)Nc2cc(-c3ccccc3)c(-c3ccc(C4(N)CC4)cc3)nn2)CC1` [Example 87, N-(trans-4-(2-((6-(4-(1-aminocyclopropyl)phenyl)-5-phenylpyridazin-3-yl)amino)-2-oxoethyl)cyclohexyl)-N-methylcyclopropanecarboxamide], the IC50 in test [1] is over 30000 nM; in test [2], 130 nM; in test [3], 3300 nM; in test [4], 29 nM; in test [5] it was 510 nM; in test [6] it was over 30000 nM.

Take `CCC(=O)N(C)[C@H]1CC[C@H](CC(=O)Nc2cc(-c3ccsc3)c(-c3ccc(C(C)(C)N)cc3)nn2)CC1` [Example 88, N-(trans-4-(2-((6-(4-(2-aminopropan-2-yl)phenyl)-5-(thiophen-3-yl)pyridazin-3-yl)amino)-2-oxoethyl)cyclohexyl)-N-methylpropionamide]: the IC50 in test [1] is over 30000 nM; in test [2], 240 nM; in test [3], 16000 nM; in test [4] it was 64 nM; in test [5] it was 8600 nM; in test [6], over 30000 nM.

`CCC(=O)N(C)[C@H]1CC[C@H](CC(=O)Nc2cc(-c3ccsc3)c(-c3ccc([C@]4(N)C[C@](C)(O)C4)cc3)nn2)CC1` [Example 91, N-(trans-4-(2-((6-(4-(trans-1-amino-3-hydroxy-3-methylcyclobutyl)phenyl)-5-(thiophen-3-yl)pyridazin-3-yl)amino)-2-oxoethyl)cyclohexyl)-N-methylpropionamide]: the IC50 in test [1] was 7000 nM; in test [2], 13 nM; in test [3] it was 900 nM; in test [4], 5 nM; in test [5] it was 160 nM; in test [6] it was 3800 nM.

Consider `CC(=O)N(C)[C@H]1CC[C@H](CC(=O)Nc2cc(-c3ccsc3)c(-c3ccc(C4(N)CC4)c(F)c3)nn2)CC1` [Example 92, N-(6-(4-(1-aminocyclopropyl)-3-fluorophenyl)-5-(thiophen-3-yl)pyridazin-3-yl)-2-(trans-4-(N-methylacetamido)cyclohexyl)acetamide], for which the IC50 in test [1] is over 30000 nM; in test [2], 230 nM; in test [3] it was over 30000 nM; in test [4], 170 nM; in test [5] it was 14000 nM; in test [6], over 30000 nM.

The record behind these values is patent publication US10336702B2, “Pharmaceutically active compounds” (BERGENBIO ASA, priority 2015, dated 2019).
